Where “and” joins values, the source holds several entries; their conditions need not be identical. Identical values can stand only once. Entries after “also recorded” stand apart in the source; their conditions may differ.
Columns and labels:
[1] = tested on: recurrent Glioblastoma Multiforme (GBM); experiment: contrast enhancing tumor progression assessment on MRI in the clinical trial; assay type: in vivo, human; details: for tumor growth rate (median): hyperintense T1w volume in region targeted by the implant
Procedure: To evaluate the local effect of the treatment, an analysis was performed using the monthly pre-ultrasound and end-of-study MR images. The T1w contrast-enhancing tumor-related region segmented with a semi-automatic method (ITK Snap) (Yushkevich et al. 2006, Neuroimage 31:1116-1128). The total volume of this hyperintense region was evaluated at each treatment cycle in the whole brain, and in the region targeted by the implant, considering nine […] cylinders in front of the emitters. This region corresponded to 10×75 mm cylinders with an additional diffusion margin of 5 mm (Goldwirt et al., 2016, Cancer Chemother. Pharmacol. 77:211-216).
To further evaluate tumor progression likelihood as a function of distance to the region targeted by the emitters, the difference of this hyperintense volume between the last MRI and the first cycle was used as a progression mask. The distribution of the volume of this progression mask relative to the distance to the axes of the nine emitters was computed.

[2] = dose-limiting toxicity, tolerability and safety of carboplatin delivered with concomitant LIPU/MB-based BBB opening; assay type: in vivo, human
Excerpt: For the Phase 1 (escalation of the number of active emitters/beams), the main objective was to identify the Maximum Tolerated Dose (“MTD”) defined as the highest active-beams level at which ≤1 DLT occurred in a maximum of 6 patients by cohort. […]
(§1) The secondary endpoints included the frequency and severity of adverse events (incidence of adverse events summarized by system organ class and/or preferred term and severity) based on the CTCAE, version 5.0, the time to and localization of recurrence(s) on magnetic resonance imaging, feasibility of the procedure considering the time required for the sonication (from beginning of needle connection to the end of ultrasound emission and needle extraction) at the first 3 sonications of each patient, and the total time for SonoCloud 9 positioning using the SonoCloud 9 template. Six-month progression-free survival (6m-PFS), median progression-free survival (mPFS), and 1-year overall survival (1y-OS) and median OS (mOS) were also evaluated. In this trial, time to progression or to death was calculated from time of surgery/device implantation to time of events.
All patients were clinically assessed at least once a month (prior to the next cycle) and included standard laboratory blood analyses (complete blood counts, chemistry with liver and kidney function tests), and also a contrast-enhanced MRI within 2 days prior to sonication. Patients discontinued the study if tumor progression was identified according to the Response Assessment in Neuro-Oncology criteria (Wen et al., 2010, J. Clin. Oncol. 28:1963-1972). For patients continuing the study, subsequent MRI exam was to be performed immediately after LIPU/MB treatment.

[3] = tested on: recurrent Glioblastoma Multiforme (GBM); experiment: phase 1/2a clinical trial: carboplatin with LIPU/microbubble BBB opening (SonoCloud-9), clinical outcomes; assay type: in vivo, human
Procedure: A prospective, open-label, multi-center, single-arm, dose escalation, phase 1/2a clinical trial was conducted enrolling recurrent Glioblastoma Multiforme (“GBM”) patients at four clinical sites in France and two sites in the United States. All patients provided written informed consent in accordance with institutional guidelines. Approval was obtained from the ANSM (French National Health Agency) and from the US FDA (Food and Drug Administration). The study was conducted in accordance with good clinical practices. The study began in February 2019 and follow-up was completed in November 2022.
The trial was designed to evaluate the safety and efficacy of transient disruption of the blood-brain barrier by low intensity pulsed ultrasound (“LIPU”) with an implantable ultrasound device, i.e., the SonoCloud-9 implantable device (“SC9”; Carthera, Lyon, France). The trial first evaluated the Dose Limiting Toxicity (“DLT”) of escalating numbers of ultrasound beams (3, 6, and 9 beams) at constant acoustic pressure (1.03 MPa) using a 3+3 dose escalation design (cohorts A, B and C) and then confirmed the safety and efficacy of BBB opening in two expansion cohorts (cohorts C & D).
as §1
The SC9 device contains no internal energy source and is activated on demand by connecting the device to an external generator using a transdermal needle, as shown in FIG. 7A. Each sonication step consists of the generation of sequential pulses from each emitter (1 MHz, 25 ms pulse, 0.5 Hz, 270 seconds) in combination with the IV administration of the ultrasound resonator (microbubbles [MB], Definity®/Luminity® 10 μL/kg, Lantheus, N. Billerica, MA). The ultrasound resonator is injected as a 30-second bolus at the start of the ultrasound sonication procedure. Sonication was performed prior (within 60 minutes) to the carboplatin chemotherapy at cycles 1, 2 and 3 and no more than 30 minutes before the start of carboplatin therapy for the following cycles, for cohorts A, B, and C. For cohort D, the sonication was performed immediately after the completion of the carboplatin infusion. After completion of the six sonication cycles specified in the protocol or in the case of progression/premature discontinuation of the trial and prior to the end of study visit, the removal of the device could be performed unless considered as contra-indicated by the investigator or refused by the patient.
Standard carboplatin chemotherapy using any FDA/ANSM-approved, therapeutically equivalent carboplatin injectable drug product, with a target AUC of 4-6 mg/ml*min (AUC as per local practice and investigators judgement) was given according to the Calvert formula (Calvert et al., 1989, J. Clin. Oncol. 7:1748-1756). Cycles were to be repeated every 4 weeks provided the absolute neutrophil count had recovered to ≥1500 cells/mm^3 and the platelet count was at least 100,000 cells/mm^3. Subsequent dosages were adjusted for toxicity as needed per local practice.

[4] = plasma kinetics used for the model; cited from earlier work
[5] = CTCAE Grade 3, N = 34, related to the investigational procedure
[6] = CTCAE all grade, N = 34, related to the investigational procedure
[7] = cohort C, carboplatin after US (N = 15)
[8] = cohort D, carboplatin before US (N = 12)
[9] = cohorts C + D (N = 27), 9 emitters activated

N.N.O=C([O-])C1(C(=O)[O-])CCC1.[Pt+2] [carboplatin]
tumor growth rate (median) ([1]; cohort C (carboplatin after sonication)): 2.31 mL/month
evolution of the T1w enhancement outside the sonication field ([1]; cohort C vs cohort D, region targeted by the implant excluded (p=0.55)): no significant difference
tumor growth rate (median) ([1]; cohort D (carboplatin before sonication)): 0.54 mL/month
in-field tumor control ([1]; cohort D compared to cohort C): Better in-field tumor control
local tumor progression probability (% ROI volume covered with hyperintense tumor at end of study vs distance to emitter axis) ([1]; cohort D vs cohort C, up to 10 mm radius from emitter axes (significant up to 7.5 mm)): less likelihood; also recorded: lower
General disorders and administration site conditions [2, 5]: 1 (3%)
Infections and infestations [2, 5]: 2 (6%)
Nervous system disorders [2, 5]: 3 (9%)
Patients with Any Related TEAEs (Overall) [2, 5]: 12 (35%)
Skin and subcutaneous tissue disorders [2, 5]: 6 (18%)
Anxiety [2, 6]: 1 (3%)
Aphasia [2, 6]: 4 (12%)
Balance disorder [2, 6]: 1 (3%)
Cerebrospinal fluid leakage [2, 6]: 2 (6%)
Confusional state [2, 6]: 1 (3%)
Depression [2, 6]: 1 (3%)
Diplopia/Vision blurred [2, 6]: 6 (17%)
Dizziness [2, 6]: 8 (24%)
Dysarthria [2, 6]: 2 (6%)
Ear and labyrinth disorders [2, 6]: 2 (6%)
Fatigue/Asthenia [2, 6]: 6 (18%)
General disorders and administration site conditions [2, 6]: 8 (24%)
Headache [2, 6]: 7 (21%)
Hypoaesthesia [2, 6]: 1 (3%)
Implant site pain [2, 6]: 1 (3%)
Infections and infestations [2, 6]: 2 (6%)
Injury, poisoning and procedural complications [2, 6]: 3 (9%)
Lacunar stroke [2, 6]: 1 (3%)
Language disorder [2, 6]: 1 (3%)
Meningocele acquired [2, 6]: 3 (9%)
Monoparesis [2, 6]: 1 (3%)
Nervous system disorders [2, 6]: 25 (74%)
Pain of skin [2, 6]: 19 (56%)
Paraesthesia [2, 6]: 3 (9%)
Patients with Any Related TEAEs (Overall) [2, 6]: 33 (97%)
Post procedural oedema [2, 6]: 1 (3%)
Presyncope [2, 6]: 2 (6%)
Psychiatric disorders [2, 6]: 2 (6%)
Scar [2, 6]: 1 (3%)
Seizure [2, 6]: 2 (6%)
Skin and subcutaneous tissue disorders [2, 6]: 19 (56%)
Subarachnoid haemorrhage [2, 6]: 1 (3%)
Vertigo [2, 6]: 2 (6%)
Wound infection/Postoperative wound infection [2, 6]: 2 (6%)
grade 4 events ([2]; CTCAE, all implanted patients): No grade 4 events
tolerability of device implantation and repeated BBB opening procedure ([2]; all patients): well-tolerated
pattern of hematological and non-hematological toxicities secondary to carboplatin ([2]; e.g. bone marrow suppression, anemia, vomiting): as expected
Dose Limiting Toxicity (DLT) ([2]; sonication plus carboplatin, 3, 6 and 9 beams): No DLTs
1-yr OS [3, 7]: 46.7% and 47%
9-month OS [3, 7]: 67%
mOS [3, 7]: 11.8 months
mPFS [3, 7]: 2.5 months
1-yr OS [3, 8]: 58.3% and 58%
9-month OS [3, 8]: 75%
mOS [3, 8]: 14.0 months
mPFS [3, 8]: 3.1 months
1-yr OS [3, 9]: 52%
9-month OS [3, 9]: 70%
mOS [3, 9]: 12.4 months
mPFS [3, 9]: 2.7 months
alpha half-life [4]: ~1 h
beta half-life [4]: ~6 h

CC(=O)O[C@H]1C(=O)[C@@]2(C)[C@H]([C@H](OC(=O)c3ccccc3)[C@]3(O)C[C@H](OC(=O)[C@H](O)[C@@H](NC(=O)c4ccccc4)c4ccccc4)C(C)=C1C3(C)C)[C@]1(OC(C)=O)CO[C@@H]1C[C@@H]2O [paclitaxel]
alpha half-life [4]: ~0.5 h
beta half-life [4]: several hours
